Holding throughout (assay): NCI-60 cell line screen, 48 h
Assay [1] concerns HOP-62 NSCLC.
Assay [2] has as its system HCT-15 colon.
Assay [3] has as its system NCI-H460 lung.
Assay [4] has as its system SF-539 CNS.
The test system of assay [5] is CAKI-1 renal.
Assay [6] concerns NCI-H522 lung.
Assay [7] deals with SF-295 CNS.
Assay [8] has as its system MALME-3M melanoma.
The test system of assay [9] is SNB-75 CNS.
Assay [10] concerns SR leukemia.
Assay [11] concerns OVCAR-5 ovarian.
Assay [12] concerns A549 NSCLC.
For assay [13], the system named is NCI-H226 lung.
Assay [14] deals with K-562 leukemia.
The test system of assay [15] is T-47D breast.
The subject of assay [16] is MDA-MB-435.
Assay [17] relates to HS 578T breast.
In assay [18] the test system is DU-145 prostate.
The test system of assay [19] is BT-549 breast.

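Growth conditions: 96-well plates. Treatment: test compound, 48 hours, 5 concentrations. Analysis: linear interpolation between bracketing concentrations; unreached endpoints set to highest concentration. The concentration for full growth arrest is given as TGI.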

For `O=C(CCN1CCC(CCO)CC1)Nc1ccc2c(c1)C(=O)c1ccc(NC(=O)CCN3CCC(CCO)CC3)cc1C2=O`, the TGI in [1] was 37.5 µM; in assay [2], more than 100 µM; in [3], 15.5 µM; in assay [4] it was 19.4 µM; in [5], more than 100 µM; in [6], 24 µM. The TGI in assay [7] is more than 100 µM; in assay [8], 28.6 µM; in assay [9] it was 64.2 µM; in assay [10], 55.7 µM; in assay [11], more than 100 µM; in assay [12], more than 100 µM. Besides, the figures for the TGI in assay [13] and in [14] were 76.5 µM and 42.6 µM, respectively.
Consider `CN1c2ccccc2C(=O)NC12CCNCC2`, for which the TGI in assay [1], in assay [15], in assay [3], in [4], in assay [16] and in [7] was more than 100 µM in each case. Also, the TGI in [8], in assay [9], in [10], in assay [11], in assay [12] and in assay [13] was more than 100 µM throughout. Further, the TGI was more than 100 µM in assay [14], 40 µM in assay [17] and more than 100 µM in assay [18].
As to `CN(C)CCN(C)C(=O)C1CCCN1C(=O)OCc1ccccc1` (stereo not drawn), the TGI was more than 100 µM in assay [1]; more than 100 µM in assay [2]; more than 100 µM in assay [3]; more than 100 µM in assay [4]; 24 µM in [6]; more than 100 µM in assay [7]. Further, the TGI in assay [8], in assay [9], in assay [10], in [11], in assay [12] and in assay [13] was more than 100 µM throughout. This molecule yielded a TGI in assay [14] of more than 100 µM.
For `CN(C)CC1CCCCCCCCCCCCC(CN(C)C)C1=O` (stereo not drawn), the TGI turned out to be 30.3 µM in [1]; 34.8 µM in [2]; 27.6 µM in assay [3]; 28.7 µM in assay [4]; 26.3 µM in assay [5]; 29.6 µM in assay [7]. The TGI amounted to 29.4 µM in assay [8]; 24.6 µM in [9]; 14 µM in assay [10]; 30.6 µM in assay [11]; 29.6 µM in assay [12]; 23.9 µM in assay [13].
For `CC1=NC=C(O)c2ccccc2O1`, the TGI in assay [1], in assay [2], in [3], in assay [4], in assay [7] and in assay [8] was more than 100 µM in each case. The TGI in assay [12] and in assay [14] was more than 100 µM each time.
Regarding `CC(=O)Oc1c(Br)ccc2cc(C(Br)Br)c(C(=O)c3ccccc3)nc12`, the TGI was 34.4 µM in assay [1]; 44.2 µM in assay [2]; 44.4 µM in assay [3]; 42.3 µM in assay [4]; 12.9 µM in assay [5]; 14.8 µM in [6]. The TGI in [7] is 35.1 µM; in assay [8], 51 µM; in assay [9], 46 µM; in assay [10], 74.2 µM; in [11] it was 31.1 µM; in assay [12] it was 43.4 µM. Also, the TGI in assay [13] amounted to 40.2 µM; in assay [14], 44.1 µM.
`CCOC(=O)/C(=C/c1ccccc1Br)P(=O)(OCC)OCC`: the TGI in [1] turned out to be 12 µM; in [2], 5.87 µM; in assay [3], 10.7 µM; in assay [4], 6.22 µM; in [5], 4.3 µM; in assay [6], 2.32 µM. For the same molecule, the TGI is 12.2 µM in [7]; 3.47 µM in assay [8]; 6.02 µM in assay [9]; 5.92 µM in [11]; 10.7 µM in assay [12]; 6.89 µM in [13]. This molecule also displayed a TGI in assay [14] of 2 µM.
As for `O=C1CCCC2=C1CC1=C(CCCC1=O)N2c1ccc([N+](=O)[O-])cc1`, the TGI in assay [2], in assay [3], in assay [4], in assay [5], in assay [9] and in assay [10] was more than 100 µM in each case. Moreover, the TGI in [11], in assay [12], in assay [13], in [14], in assay [17] and in assay [19] was more than 100 µM throughout.
Consider `O=C(Cc1ccccc1)NN1C(=O)C(Cl)C1c1cccc([N+](=O)[O-])c1` (stereo not drawn), for which the TGI in assay [1] was more than 100 µM; in assay [2] it was more than 100 µM; in assay [3] it was more than 100 µM; in assay [4], more than 100 µM; in [5], more than 63.8 µM; in assay [6], 3.64 µM. Also, the TGI is more than 100 µM in [7]; more than 100 µM in assay [8]; 22.1 µM in [10]; more than 100 µM in assay [11]; more than 100 µM in assay [12]; more than 90.1 µM in assay [13]. This molecule displayed a TGI in assay [14] of 54 µM.
In the case of `C/C1=C/C[C@@H](/C(C)=C/c2csc(C)n2)OC(=O)C[C@H](O)C(C)(C)C(=O)[C@H](C)[C@@H](O)[C@@H](C)CCC1`, the TGI was 0.259 µM in [1]; 0.237 µM in [2]; 0.361 µM in assay [15]; 0.23 µM in assay [3]; less than 0.0001 µM in assay [4]; 0.305 µM in assay [5]. The TGI in assay [6] is less than 0.0001 µM; in assay [7], less than 0.0001 µM; in assay [11] it was 0.189 µM; in [12], 0.181 µM; in [13], 0.214 µM; in assay [17], less than 0.0001 µM. The TGI was 0.198 µM in assay [19] and less than 0.0001 µM in assay [18].

(Values after PubChem BioAssay (NCI).)
